Reference: ChEMBL document CHEMBL4814050, “Identification of gallic acid as a active ingredient of Syzygium aromaticum against tacrolimus-induced damage in renal epithelial LLC-PK1 cells and rat kidney” (Bioorg Med Chem Lett, 2021)
The source made the active and inactive calls. No cut-off for these calls is given here.

How the values were obtained:
[1] = Antioxidant activity assessed as reduction in FK506-induced ROS production by […] assay; format: functional; conditions: dose 0.1-100 µM
[2] = system: LLC-PK1; test: Cytoprotective activity against pig LLC-PK1 cells assessed as reduction in FK506-induced cytotoxicity incubated for 2 hrs followed by FK506 stimulation and measured after 24 hrs by MTT assay; format: functional, cell-based; conditions: Sus scrofa, dose 12.5-100 µM, time 26.0 hrs
[3] = organism: Rattus norvegicus; test: Nephroprotective activity in Sprague-Dawley rat assessed as reduction in FK506-induced kidney dysfunction by measuring decrease in serum creatinine level measured after 14 days; format: functional, organism-based; conditions: time 14.0 day

Structure (SMILES): O=C(O)c1cc(O)c(O)c(O)c1
- Activity [1]: Dose-Dependent Effect
- Activity [2]: Dose-Dependent Effect
- Activity [3]: Active

Structure (SMILES): O=C1O[C@H]([C@@H](O)CO)C(O)=C1O
- Activity [1]: Active

Structure (SMILES): O=C(O[C@@H]1Cc2c(O)cc(O)cc2O[C@@H]1c1cc(O)c(O)c(O)c1)c1cc(O)c(O)c(O)c1
- Activity [1]: Dose-Dependent Effect
- Activity [2]: Dose-Dependent Effect
